{"source": "patent EP4806894A1", "about": "“TNAP INHIBITORY COMPOUND AND USE THEREOF” (Rednvia Co., Ltd., priority 2023, dated 2025)", "key": {"[1]": {"target": "T1, TNAP (Homo sapiens, UniProt P05186)", "T1 sequence (P05186 18-502 limits assumed)": "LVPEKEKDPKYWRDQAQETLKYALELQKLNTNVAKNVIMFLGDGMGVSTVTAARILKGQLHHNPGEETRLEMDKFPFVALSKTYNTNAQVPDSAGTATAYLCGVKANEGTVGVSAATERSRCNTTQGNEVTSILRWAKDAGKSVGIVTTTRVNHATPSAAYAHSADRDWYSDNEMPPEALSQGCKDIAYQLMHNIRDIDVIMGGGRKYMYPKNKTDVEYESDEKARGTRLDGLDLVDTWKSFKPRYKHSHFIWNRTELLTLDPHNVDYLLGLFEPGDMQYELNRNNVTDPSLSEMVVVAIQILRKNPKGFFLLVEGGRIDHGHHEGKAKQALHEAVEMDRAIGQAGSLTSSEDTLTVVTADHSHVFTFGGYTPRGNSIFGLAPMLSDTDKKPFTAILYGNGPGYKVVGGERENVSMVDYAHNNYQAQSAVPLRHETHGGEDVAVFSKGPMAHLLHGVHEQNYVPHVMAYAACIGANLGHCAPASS", "test": "TNAP inhibitory activity, colorimetric assay (alkaline phosphatase assay kit ab83369, pNPP substrate)", "assay_type": "biochemical", "conditions": "TNAP enzyme, 2 hours at room temperature, absorbance 405 nm"}, "[2]": {"tested_on": "C57BL/6 mouse", "test": "Vitamin D-induced calcification mouse animal model (aortic valve histopathology)", "assay_type": "in vivo", "conditions": "for blackened area (von Kossa staining, increased calcification): Figure 2, versus high-dose vitamin D3-induced calcification group (B); for Number of inflammatory cells (cells/mm^2): aortic valve area; for Number of inflammatory cells (cells/mm^2) / Mean thickness (µm): HE staining; for Number of inflammatory cells (cells/mm^2) / Mean thickness (µm) / Calcified area (%/mm^2): vitamin D3 6.5x10^5 IU/Kg s.c. for 3 days, compound orally once a day for 8 days, mouse; for Mean thickness (µm) / Calcified area (%/mm^2): aortic valve; for Calcified area (%/mm^2): von Kossa staining", "description": "(§1) Individual heart samples were cut crosswise, one section at a time, around the origin/root region of the ascending aorta. Histological sections were then prepared from all the samples received. All cross-sectioned cardiac-aortic valve sections were refixed in 10% neutral buffered formalin for 24 hours to prepare histological samples. After the samples were embedded in paraffin, two serial sections of 3 to 4 µm thickness were prepared on each paraffin block and stained with hematoxylin & eosin (HE) for general histopathology or von Kossa (VK) for calcium deposition, respectively. To observe more detailed changes, a computer-assisted image analysis program and a histological camera system were used to calculate the mean aortic valve thickness (µm) and the number of inflammatory cells infiltrating the aortic valve area (cells/mm^2) in HE staining, and the mean calcified aortic valve area (%/mm^2) in VK staining in this histopathological analysis.\nExperimental animals were prepared similarly to Experimental Example 3. Excluding the normal group, four groups were administered with high-dose (6.5x10^5 IU/Kg) vitamin D3 subcutaneously once a day for a total of 3 days to induce calcification. The compounds of Examples 1 and 6 were administered orally together from the first day of vitamin D3 administration, and then administered once a day for 5 more days without vitamin D3 administration, for a total of 8 days.\nSamples were obtained and analyzed in the same manner as in Experimental Example 3."}, "[3]": {"tested_on": "C57BL/6 mouse", "test": "Warfarin-induced calcification mouse animal model (aortic valve histopathology)", "assay_type": "in vivo", "conditions": "for blackened area (von Kossa staining, increased calcification): Figure 1, versus warfarin and vitamin K1-induced calcification group (B); for Number of inflammatory cells (cells/mm^2): aortic valve area; for Number of inflammatory cells (cells/mm^2) / Mean thickness (µm): HE staining; for Number of inflammatory cells (cells/mm^2) / Mean thickness (µm) / Calcified area (%/mm^2): warfarin and vitamin K1 for 4 weeks, C57BL/6 mouse; for Mean thickness (µm) / Calcified area (%/mm^2): aortic valve; for Calcified area (%/mm^2): von Kossa staining", "description": "• 1. Animal: C57BL/6 mouse (OrientBio, Sungnam-city, Korea) • Gender: male • Age on arrival: C57BL/6 (6 weeks) • Raising: Animals were raised in filter cap polycarbonate cages, 5 animals each, in a temperature (25°C) and humidity (45-55%) controlled sterile clean room. The light:dark cycle was 12 hours:12 hours, and sterilized food and water were provided with free access. • Guidelines: All animals were treated in accordance with the Daegu Haany University Institutional Animal Care and Use Committee (Gyeongsan, Korea). • 2. General experimental methods: In vivo drug administration\nAfter acclimating the mice for one week, they were divided into each group and tested.\nAfter acclimation for one week, the groups were randomized.\nThe mice were divided into four groups: a group that received no treatment (A), a group that was treated with warfarin and vitamin K1 to induce calcification (B), a group that was administered orally with 0.5% CMC (carboxymethyl Cellulose) (C), and a group that was administered with the test compound. The compounds of Example 1 (K) and Example 6 (L) were selected as the test compound.\nAll groups, except the untreated control group (Normal), were administered both warfarin and vitamin K1 at 8:00 AM and warfarin alone at 8:00 PM for 4 weeks.\nHeart tissue samples were obtained from each group and used for analysis.\nas §1"}, "[4]": {"tested_on": "saos-2 cells", "test": "Anticalcification efficacy in saos-2 cells (osteogenic medium, Alizarin Red staining)", "assay_type": "cell-based", "conditions": "test compound 1 µM, 7 days osteogenic medium, Alizarin Red absorbance 540 nm", "summary_of_the_method": "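Saos-2 cells at 80–90% confluence induced for 7 days in osteogenic medium (DMEM, 100 nM dexamethasone, 10 mM β-glycerophosphate, 0.05 mM ascorbic acid), compound (0.5, 1, 5, 10 […]) added with each medium change. Alizarin Red staining eluted with cetylpyridinium chloride, A540 read; inhibition taken against OM-only absorbance.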"}}, "data": [{"compound": "5-chloro-2-methoxy-N-(5-oxo-6,7-dihydro-5H-pyrrolo[3,4-b]pyridine-3-yl)benzenesulfonamide [Example 1]", "values": [{"measurement": "IC50", "setting": "[1]", "value": "0.01 to 0.1", "unit": "µM"}, {"measurement": "blackened area (von Kossa staining, increased calcification)", "setting": "[2]", "value": "significantly reduced"}, {"measurement": "Number of inflammatory cells (cells/mm^2)", "setting": "[2]", "value": "110.89±21.64", "unit": "cells/mm^2"}, {"measurement": "Mean thickness (µm)", "setting": "[2]", "value": "64.26±12.34", "unit": "µm"}, {"measurement": "Calcified area (%/mm^2)", "setting": "[2]", "value": "7.95±1.16", "unit": "%/mm^2"}, {"measurement": "blackened area (von Kossa staining, increased calcification)", "setting": "[3]", "value": "significantly reduced"}, {"measurement": "Number of inflammatory cells (cells/mm^2)", "setting": "[3]", "value": "144.40±43.12", "unit": "cells/mm^2"}, {"measurement": "Mean thickness (µm)", "setting": "[3]", "value": "112.42±10.81", "unit": "µm"}, {"measurement": "Calcified area (%/mm^2)", "setting": "[3]", "value": "2.45±0.64", "unit": "%/mm^2"}, {"measurement": "calcification inhibition", "setting": "[4]", "value": "A (inhibition of 50% or more was expressed as \"A\")"}]}, {"compound": "COc1ccc(Cl)cc1S(=O)(=O)Nc1cnc2c(c1)C(=O)NCC2", "note": "[Example 6, 5-chloro-2-methoxy-N-(5-oxo-5,6,7,8-tetrahydro-1,6-naphthyridine-3-yl)benzenesulfonamide]", "values": [{"measurement": "IC50", "setting": "[1]", "value": "≤ 0.01", "unit": "µM"}, {"measurement": "blackened area (von Kossa staining, increased calcification)", "setting": "[2]", "value": "significantly reduced"}, {"measurement": "Number of inflammatory cells (cells/mm^2)", "setting": "[2]", "value": "58.89±17.32", "unit": "cells/mm^2"}, {"measurement": "Mean thickness (µm)", "setting": "[2]", "value": "51.76±10.39", "unit": "µm"}, {"measurement": "Calcified area (%/mm^2)", "setting": "[2]", "value": "2.44±0.92", "unit": "%/mm^2"}, {"measurement": "blackened area (von Kossa staining, increased calcification)", "setting": "[3]", "value": "significantly reduced"}, {"measurement": "Number of inflammatory cells (cells/mm^2)", "setting": "[3]", "value": "80.40±14.90", "unit": "cells/mm^2"}, {"measurement": "Mean thickness (µm)", "setting": "[3]", "value": "91.69±15.70", "unit": "µm"}, {"measurement": "Calcified area (%/mm^2)", "setting": "[3]", "value": "1.16±0.30", "unit": "%/mm^2"}, {"measurement": "inhibition at 1 µM", "setting": "[4]; Homo sapiens, 168 h, read-out: calcification inhibition", "value": "≥ 50", "unit": "%"}]}]}
